Experimental data as given in ChEMBL document CHEMBL4610045, “Selective acetylcholinesterase inhibitors derived from muscle relaxant dantrolene” (Bioorg Med Chem Lett, 2020).
Counter-ions that a name gives are not always drawn. Calls of active or inactive are those of the source. No cut-off for these calls is given here.

What was measured:
Acetylcholinesterase [1] = target: T1, Acetylcholinesterase (Homo sapiens, UniProt P22303); assay: Inhibition of AChE (unknown origin) using acetylthiocholine iodide as substrate by Ellman's method
T1 sequence (P22303 whole entry): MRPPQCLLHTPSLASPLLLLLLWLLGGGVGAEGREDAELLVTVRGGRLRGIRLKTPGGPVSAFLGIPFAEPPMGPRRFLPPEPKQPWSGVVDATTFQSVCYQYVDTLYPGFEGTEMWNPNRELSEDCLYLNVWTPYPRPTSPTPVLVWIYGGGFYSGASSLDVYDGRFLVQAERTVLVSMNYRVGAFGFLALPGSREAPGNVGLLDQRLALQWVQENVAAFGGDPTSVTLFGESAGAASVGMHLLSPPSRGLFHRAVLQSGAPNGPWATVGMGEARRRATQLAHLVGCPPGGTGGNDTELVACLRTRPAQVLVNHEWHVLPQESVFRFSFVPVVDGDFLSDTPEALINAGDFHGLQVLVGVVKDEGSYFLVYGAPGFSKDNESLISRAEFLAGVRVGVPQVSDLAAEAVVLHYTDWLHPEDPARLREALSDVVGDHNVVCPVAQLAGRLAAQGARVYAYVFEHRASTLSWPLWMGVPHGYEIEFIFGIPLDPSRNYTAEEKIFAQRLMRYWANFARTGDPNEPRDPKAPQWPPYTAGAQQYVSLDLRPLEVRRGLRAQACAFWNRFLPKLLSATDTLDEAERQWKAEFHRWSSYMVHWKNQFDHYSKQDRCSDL

Cholinesterase [2] = target: T2, Cholinesterase (Homo sapiens, UniProt P06276); assay: (§1) Inhibition of BuChE (unknown origin) at 1 uM relative to control; conditions: 1 µM
T2 sequence (P06276 whole entry): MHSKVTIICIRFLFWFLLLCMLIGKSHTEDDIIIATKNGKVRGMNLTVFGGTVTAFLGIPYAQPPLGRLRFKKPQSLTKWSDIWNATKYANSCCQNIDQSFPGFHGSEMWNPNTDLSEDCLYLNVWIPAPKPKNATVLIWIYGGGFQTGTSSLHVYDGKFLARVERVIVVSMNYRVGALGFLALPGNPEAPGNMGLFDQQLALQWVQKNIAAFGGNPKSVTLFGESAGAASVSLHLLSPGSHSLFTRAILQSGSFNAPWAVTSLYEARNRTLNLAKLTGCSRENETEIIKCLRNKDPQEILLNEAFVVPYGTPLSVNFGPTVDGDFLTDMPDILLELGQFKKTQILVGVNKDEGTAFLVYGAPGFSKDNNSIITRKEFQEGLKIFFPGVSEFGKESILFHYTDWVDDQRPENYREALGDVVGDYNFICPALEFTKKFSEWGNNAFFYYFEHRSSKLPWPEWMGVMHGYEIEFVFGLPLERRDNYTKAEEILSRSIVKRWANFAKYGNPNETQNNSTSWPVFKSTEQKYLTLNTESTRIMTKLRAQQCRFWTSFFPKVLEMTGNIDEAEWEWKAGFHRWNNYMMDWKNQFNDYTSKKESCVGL

[3] = target: T3, BuChE (butyrylcholinesterase) (Homo sapiens, UniProt P06276); assay: as §1
T3 sequence (P06276 whole entry): as above

Acetylcholinesterase [4] = target: T1, Acetylcholinesterase; assay: Inhibition of AChE (unknown origin) at 1 uM using acetylthiocholine iodide as substrate by Ellman's method relative to control
[5] = target: T3, BuChE (butyrylcholinesterase); assay: Inhibition of BuChE (unknown origin) at 20 nM relative to control
Cholinesterase [6] = target: T2, Cholinesterase; assay: Inhibition of BuChE (unknown origin)
Homo sapiens = species on record: Homo sapiens; assay: Selectivity index, ratio of IC50 for BuChE (unknown origin) to IC50 for AChE (unknown origin) using acetylthiocholine iodide as substrate
Acetylcholinesterase [7] = target: T1, Acetylcholinesterase; assay: Non-competitive inhibition of AChE (unknown origin) at 100 to 200 nM using acetylthiocholine as substrate by Ellman's method based Lineweaver-Burk plot analysis

In the case of `O=C1CN(/N=C/c2ccc(-c3cccc([N+](=O)[O-])c3)o2)C(=O)N1CCC1CCN(Cc2ccccc2)CC1`, the IC50 (Acetylcholinesterase [1]) is reported as 290 nM and the “inhibition (INH)” value (Cholinesterase [2]) is reported as “Not Active”.
`COc1ccccc1-c1ccc(/C=N/N2CC(=O)N(CCC3CCN(Cc4ccccc4)CC3)C2=O)o1` was tested, and the IC50 (Acetylcholinesterase [1]) was 90.4 nM and the inhibition at 1 µM [3] was 1.6%.
Work on `COc1ccc(-c2ccc(/C=N/N3CC(=O)N(CCC4CCN(Cc5ccccc5)CC4)C3=O)o2)cc1` yielded an IC50 (Acetylcholinesterase [1]) of 108 nM and an inhibition at 1 µM [3] of 4.6%.
`O=C1CN(/N=C/c2ccc(-c3ccc([N+](=O)[O-])cc3)o2)C(=O)N1CC1CCN(Cc2ccccc2)CC1` was tested, and the inhibition (Acetylcholinesterase [4]) was “inactive”.
For `O=C1CN(/N=C/c2ccc(-c3ccc([N+](=O)[O-])cc3)o2)C(=O)N1CCN1CCN(Cc2ccccc2)CC1`, the inhibition (Acetylcholinesterase [4]) was 67.9%, the IC50 (Acetylcholinesterase [1]) was 201 nM and the “inhibition (INH)” value (Cholinesterase [2]) was “Not Active”.
For `O=C1CN(/N=C/c2ccc(-c3ccc([N+](=O)[O-])cc3)o2)C(=O)N1CCC1CCN(Cc2ccccc2)CC1`, the inhibition (Acetylcholinesterase [4]) was 91.3%, the IC50 (Acetylcholinesterase [1]) was 46.4 nM and the “inhibition (INH)” value (Cholinesterase [2]) was “Not Active”.
For `O=C1CN(/N=C/c2ccc(-c3ccc([N+](=O)[O-])cc3)o2)C(=O)N1`, the inhibition (Acetylcholinesterase [4]) was “inactive”.
In the case of `Nc1c2c(nc3ccccc13)CCCC2` [TACRINE HYDROCHLORIDE], the inhibition at 0.02 µM [5] is reported as 64.5%.
With `COc1cccc(-c2ccc(/C=N/N3CC(=O)N(CCC4CCN(Cc5ccccc5)CC4)C3=O)o2)c1` the IC50 (Acetylcholinesterase [1]) was 47 nM and the inhibition at 1 µM [3] was 3.8%.
`O=C1CN(/N=C/c2ccc(-c3ccccc3[N+](=O)[O-])o2)C(=O)N1CCC1CCN(Cc2ccccc2)CC1` was tested, and the IC50 (Acetylcholinesterase [1]) was 34.2 nM, the inhibition at 1 µM [3] was 14.6% and the IC50 (Cholinesterase [6]) was 4.47 µM. For the same compound, the Ratio IC50 (Homo sapiens) was 130 and the inhibition (Acetylcholinesterase [7]) was “Active”.
